From the supplement of paper PMC13207355

Experiments:
Details in all cases: exposure time: 72 h
E13 [1] = patient-derived glioblastoma stem cells of classical subtype; experiment: surviving fraction (nuclei count normalised to DMSO); higher = more cells surviving (less toxic)
E21 [2] = patient-derived glioblastoma stem cells of mesenchymal subtype; experiment: as above
E28 [3] = patient-derived glioblastoma stem cells of classical subtype; experiment: as above
E31 [4] = patient-derived glioblastoma stem cells of proneural subtype; experiment: as above
E34 [5] = patient-derived glioblastoma stem cells of proneural subtype; experiment: as above
E57 [6] = patient-derived glioblastoma stem cells of mesenchymal subtype; experiment: as above
FT3469 [7] = normal neural stem cell line; experiment: as above
E13 [8] = experiment: phenotypic distance (Euclidean, principal components) from DMSO controls (arbitrary units); higher = stronger morphological change
E21 [9] = experiment: as above
E28 [10] = experiment: as above
E31 [11] = experiment: as above
E34 [12] = experiment: as above
E57 [13] = experiment: as above
FT3469 [14] = experiment: as above
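For phenotypic distance (Euclidean, principal components) from DMSO controls in this document: cell Painting imaging in 384-well plates, CellProfiler features reduced to at least 20 principal components, Euclidean distance versus same-plate DMSO vehicle wells (0.1% v/v), median over six images per well.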
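For surviving fraction (nuclei count normalised to DMSO) in this document: nuclei counted by high-content imaging of Hoechst-stained cells in laminin-coated 384-well plates, relative to 0.1% DMSO vehicle wells, with staurosporine as cell-death control.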

COC(=O)Nc1nc2cc(Sc3ccccc3)ccc2[nH]1 [Fenbendazole]
Details	phenotypic distance	surviving fraction
E13 [1], 4.1 nM	–	1.02
E13 [1], 12.3 nM	–	1.07
E13 [1], 37 nM	–	1.05
E13 [1], 111.1 nM	–	0.86
E13 [1], 333.3 nM	–	0.548
E13 [1], 1000 nM	–	0.179
E13 [1], 3000 nM	–	0.236
E13 [8], 4.1 nM	0.824	–
E13 [8], 12.3 nM	0.763	–
E13 [8], 37 nM	0.771	–
E13 [8], 111.1 nM	1.88	–
E13 [8], 333.3 nM	3.45	–
E13 [8], 1000 nM	6.64	–
E13 [8], 3000 nM	6.13	–
E21 [2], 4.1 nM	–	1.07
E21 [2], 12.3 nM	–	1.02
E21 [2], 37 nM	–	0.982
E21 [2], 111.1 nM	–	0.874
E21 [2], 333.3 nM	–	0.941
E21 [2], 1000 nM	–	0.105
E21 [2], 3000 nM	–	0.122
E21 [9], 4.1 nM	0.689	–
E21 [9], 12.3 nM	0.58	–
E21 [9], 37 nM	1.03	–
E21 [9], 111.1 nM	1.63	–
E21 [9], 333.3 nM	2.19	–
E21 [9], 1000 nM	7.35	–
E21 [9], 3000 nM	5.94	–
E28 [3], 4.1 nM	–	1
E28 [3], 12.3 nM	–	1.09
E28 [3], 37 nM	–	1.1
E28 [3], 111.1 nM	–	0.927
E28 [3], 333.3 nM	–	1.07
E28 [3], 1000 nM	–	0.359
E28 [3], 3000 nM	–	0.304
E28 [10], 4.1 nM	0.869	–
E28 [10], 12.3 nM	0.342	–
E28 [10], 37 nM	0.965	–
E28 [10], 111.1 nM	1.03	–
E28 [10], 333.3 nM	1.48	–
E28 [10], 1000 nM	3.39	–
E28 [10], 3000 nM	3.63	–
E31 [4], 4.1 nM	–	1.12
E31 [4], 12.3 nM	–	0.906
E31 [4], 37 nM	–	0.836
E31 [4], 111.1 nM	–	0.749
E31 [4], 333.3 nM	–	0.526
E31 [4], 1000 nM	–	0.0787
E31 [4], 3000 nM	–	0.0818
E31 [11], 4.1 nM	0.332	–
E31 [11], 12.3 nM	0.747	–
E31 [11], 37 nM	0.989	–
E31 [11], 111.1 nM	1.13	–
E31 [11], 333.3 nM	1.96	–
E31 [11], 1000 nM	6.33	–
E31 [11], 3000 nM	5.86	–
E34 [5], 4.1 nM	–	1.06
E34 [5], 12.3 nM	–	0.988
E34 [5], 37 nM	–	0.935
E34 [5], 111.1 nM	–	1.01
E34 [5], 333.3 nM	–	0.795
E34 [5], 1000 nM	–	0.361
E34 [5], 3000 nM	–	0.349
E34 [12], 4.1 nM	0.744	–
E34 [12], 12.3 nM	0.832	–
E34 [12], 37 nM	0.751	–
E34 [12], 111.1 nM	0.935	–
E34 [12], 333.3 nM	1.56	–
E34 [12], 1000 nM	4.45	–
E34 [12], 3000 nM	5.29	–
E57 [6], 4.1 nM	–	1
E57 [6], 12.3 nM	–	1.05
E57 [6], 37 nM	–	1.06
E57 [6], 111.1 nM	–	0.964
E57 [6], 333.3 nM	–	0.841
E57 [6], 1000 nM	–	0.0618
E57 [6], 3000 nM	–	0.0799
E57 [13], 4.1 nM	0.515	–
E57 [13], 12.3 nM	0.484	–
E57 [13], 37 nM	1.23	–
E57 [13], 111.1 nM	1.6	–
E57 [13], 333.3 nM	2.13	–
E57 [13], 1000 nM	4.89	–
E57 [13], 3000 nM	4.66	–
FT3469 [7], 4.1 nM	–	1.03
FT3469 [7], 12.3 nM	–	1.1
FT3469 [7], 37 nM	–	0.864
FT3469 [7], 111.1 nM	–	1.02
FT3469 [7], 333.3 nM	–	0.864
FT3469 [7], 1000 nM	–	0.511
FT3469 [7], 3000 nM	–	0.622
FT3469 [14], 4.1 nM	0.898	–
FT3469 [14], 12.3 nM	0.598	–
FT3469 [14], 37 nM	0.489	–
FT3469 [14], 111.1 nM	1.42	–
FT3469 [14], 333.3 nM	1.54	–
FT3469 [14], 1000 nM	2.9	–
FT3469 [14], 3000 nM	2.71	–

CCCSc1ccc2[nH]c(NC(=O)OC)nc2c1 [Albendazole]
Details	phenotypic distance	surviving fraction
E13 [1], 4.1 nM	–	0.787
E13 [1], 12.3 nM	–	0.877
E13 [1], 37 nM	–	0.931
E13 [1], 111.1 nM	–	0.655
E13 [1], 333.3 nM	–	0.439
E13 [1], 1000 nM	–	0.373
E13 [1], 3000 nM	–	0.222
E13 [8], 4.1 nM	1.01	–
E13 [8], 12.3 nM	0.56	–
E13 [8], 37 nM	0.737	–
E13 [8], 111.1 nM	2.95	–
E13 [8], 333.3 nM	4.43	–
E13 [8], 1000 nM	4.68	–
E13 [8], 3000 nM	7.36	–
E21 [2], 4.1 nM	–	0.887
E21 [2], 12.3 nM	–	0.807
E21 [2], 37 nM	–	0.834
E21 [2], 111.1 nM	–	0.804
E21 [2], 333.3 nM	–	0.755
E21 [2], 1000 nM	–	0.169
E21 [2], 3000 nM	–	0.118
E21 [9], 4.1 nM	1.02	–
E21 [9], 12.3 nM	0.918	–
E21 [9], 37 nM	1.01	–
E21 [9], 111.1 nM	1.35	–
E21 [9], 333.3 nM	3.4	–
E21 [9], 1000 nM	7.12	–
E21 [9], 3000 nM	8.62	–
E28 [3], 4.1 nM	–	0.86
E28 [3], 12.3 nM	–	0.988
E28 [3], 37 nM	–	0.734
E28 [3], 111.1 nM	–	1.04
E28 [3], 333.3 nM	–	0.719
E28 [3], 1000 nM	–	0.536
E28 [3], 3000 nM	–	0.28
E28 [10], 4.1 nM	0.748	–
E28 [10], 12.3 nM	0.904	–
E28 [10], 37 nM	0.875	–
E28 [10], 111.1 nM	1.25	–
E28 [10], 333.3 nM	2.28	–
E28 [10], 1000 nM	3.22	–
E28 [10], 3000 nM	3.85	–
E31 [4], 4.1 nM	–	0.993
E31 [4], 12.3 nM	–	0.833
E31 [4], 37 nM	–	0.874
E31 [4], 111.1 nM	–	0.758
E31 [4], 333.3 nM	–	0.408
E31 [4], 1000 nM	–	0.186
E31 [4], 3000 nM	–	0.0928
E31 [11], 4.1 nM	0.384	–
E31 [11], 12.3 nM	0.712	–
E31 [11], 37 nM	0.564	–
E31 [11], 111.1 nM	1.13	–
E31 [11], 333.3 nM	3.4	–
E31 [11], 1000 nM	5.94	–
E31 [11], 3000 nM	5.22	–
E34 [5], 4.1 nM	–	0.934
E34 [5], 12.3 nM	–	1.06
E34 [5], 37 nM	–	0.937
E34 [5], 111.1 nM	–	0.927
E34 [5], 333.3 nM	–	0.656
E34 [5], 1000 nM	–	0.476
E34 [5], 3000 nM	–	0.439
E34 [12], 4.1 nM	0.51	–
E34 [12], 12.3 nM	1.47	–
E34 [12], 37 nM	1.32	–
E34 [12], 111.1 nM	0.857	–
E34 [12], 333.3 nM	2.54	–
E34 [12], 1000 nM	3.76	–
E34 [12], 3000 nM	5.5	–
E57 [6], 4.1 nM	–	1.02
E57 [6], 12.3 nM	–	0.99
E57 [6], 37 nM	–	0.873
E57 [6], 111.1 nM	–	0.909
E57 [6], 333.3 nM	–	0.715
E57 [6], 1000 nM	–	0.257
E57 [6], 3000 nM	–	0.0825
E57 [13], 4.1 nM	0.729	–
E57 [13], 12.3 nM	1.11	–
E57 [13], 37 nM	0.859	–
E57 [13], 111.1 nM	1.5	–
E57 [13], 333.3 nM	3.52	–
E57 [13], 1000 nM	5.59	–
E57 [13], 3000 nM	4.71	–
FT3469 [7], 4.1 nM	–	0.783
FT3469 [7], 12.3 nM	–	0.812
FT3469 [7], 37 nM	–	0.76
FT3469 [7], 111.1 nM	–	0.924
FT3469 [7], 333.3 nM	–	0.725
FT3469 [7], 1000 nM	–	0.662
FT3469 [7], 3000 nM	–	0.504
FT3469 [14], 4.1 nM	0.912	–
FT3469 [14], 12.3 nM	1.05	–
FT3469 [14], 37 nM	0.721	–
FT3469 [14], 111.1 nM	1.33	–
FT3469 [14], 333.3 nM	2.27	–
FT3469 [14], 1000 nM	3.43	–
FT3469 [14], 3000 nM	3.98	–
